Literature values as cited in patent publication US20240317846A1 (priority 2021, published 2024).

System: COVID-19
Conditions: non-significant trend; cited from earlier work

Q: For “Mavrilimumab: monoclonal antibody that acts as a GM-CSF alpha-receptor antagonist”, which “Improvement in survival without requirement for supplemental oxygen” value is on record?
A: The value was 48%.
